Each molecule was assayed against T1, Transcriptional activator protein LuxR (Aliivibrio fischeri, UniProt P12746) (assay: Antagonist activity at LuxR in Vibrio fischeri assessed as inhibition of N-3-oxos-hexanoyl-L-homoserine lactone induced luminescence).
T1 sequence (P12746 whole entry): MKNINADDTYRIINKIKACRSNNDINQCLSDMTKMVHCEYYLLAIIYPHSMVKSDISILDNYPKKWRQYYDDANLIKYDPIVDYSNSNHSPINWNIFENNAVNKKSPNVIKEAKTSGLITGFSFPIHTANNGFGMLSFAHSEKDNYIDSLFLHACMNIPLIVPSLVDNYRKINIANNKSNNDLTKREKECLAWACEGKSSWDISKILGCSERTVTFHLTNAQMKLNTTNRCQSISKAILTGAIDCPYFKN
Format: functional
Work on `CCCCCS(=O)(=O)NC1CCOC1=O` (stereo unspecified) yielded an IC50 of 3 µM. For `O=C1OCCC1NS(=O)(=O)NCCCc1ccccc1` (stereo unspecified), the IC50 was 9.4 µM. `CCCCNC(=O)NC1CCOC1=O` (stereo unspecified) gave an IC50 of 5 µM. `CCCCCCCCCCNS(=O)(=O)NC1CCOC1=O` (stereo unspecified) gave an IC50 of 7.8 µM. `CCCCNS(=O)(=O)NC1CCOC1=O` (stereo unspecified) was tested, and the IC50 was 3.6 µM. With `CCCCCNS(=O)(=O)NC1CCOC1=O` (stereo unspecified) the IC50 was 2 µM. With `O=C1OCCC1NS(=O)(=O)NCCc1ccccc1` (stereo unspecified) the IC50 was 13 µM. In the case of `O=C1OCCC1NS(=O)(=O)NCc1ccccc1` (stereo unspecified), the IC50 is reported as 6.4 µM. For `O=C1OCCC1NS(=O)(=O)NCCCCc1ccccc1` (stereo unspecified), the IC50 was 13 µM. Molecule `CCCCCCCCNS(=O)(=O)NC1CCOC1=O` (stereo unspecified) has an IC50 of 7.2 µM. In the case of `CCCCCCNS(=O)(=O)NC1CCOC1=O` (stereo unspecified), the IC50 is reported as 5 µM.

— ChEMBL document CHEMBL1142387, “Synthetic homoserine lactone-derived sulfonylureas as inhibitors of Vibrio fischeri quorum sensing regulator” (Bioorg Med Chem, 2008)
